# Data published in patent US20250188082A1, “Use of Hypoxanthine Compound In Preparation of Drug For Treating Pulmonary Fibrosis” (Sichuan Yiasuo Pharmaceutical Technology Co., Ltd., priority 2022, published 2025).
# Read-outs that look alike come from different tables or passages of the source.
# How the values were obtained:
# Format in all cases: in vivo, C57BL/6 mice
# [1] = test system: influenza A virus-induced pulmonary fibrosis model (FM1 strain of influenza A (H1N1) virus); assay: Influenza A virus-induced pulmonary fibrosis model; conditions: 120 mg/kg/d intragastric, 14 days; for Ashcroft scores: influenza A virus + bleomycin, lung tissue HE; for IL-1β / IL-6 / NF-κB / TNF-α: serum, influenza A (H1N1) FM1 + bleomycin, from two weeks after model
# Description: Experimental method: an in-vivo influenza A virus-induced pulmonary fibrosis model was established: C57BL/6 mice (with weights being 22-25 g) were randomly and evenly divided into a plurality of groups, including blank control group, model group, Nintedanib positive control group, hypoxanthine analogue A group, hypoxanthine analogue B group, hypoxanthine analogue C group, compound 1 group, compound 2 group . . . compound 12 group, with 9 mice in each group. On Day 1, the mice in blank control group were instilled with normal saline nasally, and the mice in other groups were all infected with a FM1 strain of an influenza A (H1N1) virus 30 (μL) through nasal instillation. On Day 2, the mice received 5 mg/kg bleomycin through tracheas to induce their pulmonary fibrosis. After the model was established for two weeks, the mice in each group were intragastrically administrated for intervention for consecutive 14 days; the mice in blank control group and model group intragastrically received the same dosage of the normal saline as those in drug groups; the mice in Nintedanib positive control group received Nintedanib (120 mg/kg); the mice in hypoxanthine analogue A group, hypoxanthine analogue B group and hypoxanthine analogue C group respectively received hypoxanthine analogue A (120 mg/kg/d), hypoxanthine analogue B (120 mg/kg/d) and hypoxanthine analogue C (120 mg/kg/d); and the mice in compound 1 group, compound 2 group . . . compound 12 group respectively received compound 1 (120 mg/kg/d), compound 2 (120 mg/kg/d) . . . compound 12 (120 mg/kg/d) prepared in example 1. After administration for consecutive 14 days, the mice were observed every day, and their weights and death conditions were recorded. After administration, blood was taken from eyeballs for immediately detecting the expression levels of NF-κB, TNF-α, IL-1 and IL-6 in serum, and lung tissues were taken for HE detection and Ashcroft scoring.
# [2] = test system: influenza B virus-induced pulmonary fibrosis model (influenza B (H7N9) virus); conditions: 120 mg/kg/d intragastric, 14 days; for Ashcroft scores: influenza B virus + bleomycin, lung tissue HE; for IL-1β / NF-κB / TNF-α / IL-6: serum, from two weeks after model; for IL-1β / NF-κB / TNF-α: influenza B (H7N9) + bleomycin; for IL-6: influenza B + bleomycin
# [3] = test system: Streptococcus pneumoniae-induced pulmonary fibrosis model; assay: Streptococcus pneumoniae-induced pulmonary fibrosis model; conditions: for Leucocyte / Lymphocyte / Neutrophil / Ashcroft scores: Streptococcus pneumoniae + bleomycin, 120 mg/kg/d intragastric, 14 days; for Leucocyte / Lymphocyte / Neutrophil: blood, Day 15, 3 times every day, from one week after model; for Ashcroft scores: lung tissue HE staining; for inhibition (anti-inflammatory) effect on leucocytes, neutrophils and lymphocytes in blood: mice with Streptococcus pneumoniae-induced pulmonary fibrosis, result in words
# [4] = test system: bleomycin-induced pulmonary fibrosis model; assay: Advanced pulmonary fibrosis: bleomycin-induced model, dosing from three weeks after modelling; conditions: for Leucocyte / Lymphocyte / Neutrophil / Ashcroft scores: advanced pulmonary fibrosis, 120 mg/kg/d intragastric, 14 days, from three weeks after model; for Leucocyte / Lymphocyte / Neutrophil: blood, Day 15, twice every day; for Ashcroft scores: lung tissue HE staining; for inhibition (anti-inflammatory) effect on leucocytes, neutrophils and lymphocytes in blood: mice with advanced pulmonary fibrosis, result in words
# [5] = test system: novel coronavirus-induced pulmonary fibrosis model (COVID-19 novel coronavirus strains); assay: Novel coronavirus-induced pulmonary fibrosis model; conditions: 120 mg/kg/d intragastric, 14 days; for Ashcroft scores: novel coronavirus + bleomycin, lung tissue HE; for IL-1β / IL-6 / NF-κB / TNF-α: serum, COVID-19 novel coronavirus + bleomycin, from two weeks after model
# Description: Experimental method: an in-vivo novel coronavirus-induced pulmonary fibrosis model was established: C57BL/6 mice (with weights being 22-25 g) were randomly and evenly divided into a plurality of groups, including blank control group, model group, Nintedanib positive control group, hypoxanthine analogue A group, hypoxanthine analogue B group, hypoxanthine analogue C group, compound 1 group, a compound 2 group . . . compound 12 group, with 9 mice in each group. On Day 1, the mice in blank control group were instilled with normal saline nasally, and the mice in other groups were all infected with COVID-19 novel coronavirus strains (30 μL) through nasal instillation. On Day 2, the mice received 5 mg/kg bleomycin through tracheas to induce their pulmonary fibrosis. After the model was established for two weeks, the mice in each group were intragastrically administrated for intervention for consecutive 14 days; the mice in blank control group and model group intragastrically received the same dosage of normal saline as those in drug groups; the mice in Nintedanib positive control group received Nintedanib (120 mg/kg); the mice in hypoxanthine analogue A group, hypoxanthine analogue B group and hypoxanthine analogue C group respectively received hypoxanthine analogue A (120 mg/kg/d), hypoxanthine analogue B (120 mg/kg/d) and hypoxanthine analogue C (120 mg/kg/d); and the mice in compound 1 group, compound 2 group . . . compound 12 group respectively received compound 1 (120 mg/kg/d), compound 2 (120 mg/kg/d) . . . compound 12 (120 mg/kg/d) prepared in example 1. After administration for consecutive 14 days, the mice were observed every day, and their weights and death conditions were recorded. After administration, blood was taken from eyeballs for immediately detecting the expression levels of NF-κB, TNF-α, IL-1 and IL-6 in serum, and lung tissues were taken for HE detection and Ashcroft scoring.
structure (smiles),measurement,setting,value
"COc1ncnc2c1ncn2C(C)C [Hypoxanthine analogue C, reference compound]",Ashcroft scores,[1]; 120 mg/kg/day,6.09
same,IL-1β,[1]; 120 mg/kg/day,338.1 pg/mL
same,IL-6,[1]; 120 mg/kg/day,450.0 pg/mL
same,NF-κB,[1]; 120 mg/kg/day,782.1 pg/mL
same,TNF-α,[1]; 120 mg/kg/day,333.1 pg/mL
same,Ashcroft scores,[2]; 120 mg/kg/day,6.15
same,IL-1β,[2]; 120 mg/kg/day,241.9 pg/mL
same,NF-κB,[2]; 120 mg/kg/day,632.4 pg/mL
same,TNF-α,[2]; 120 mg/kg/day,198.9 pg/mL
same,IL-6,[2]; 120 mg/kg/day,194.9 pg/mL
same,Leucocyte,[3]; 120 mg/kg/day,149.35 10^9/L
same,Lymphocyte,[3]; 120 mg/kg/day,90.12 10^9/L
same,Neutrophil,[3]; 120 mg/kg/day,82.11 10^9/L
same,Ashcroft scores,[3]; 120 mg/kg/day,6.21
same,"inhibition (anti-inflammatory) effect on leucocytes, neutrophils and lymphocytes in blood",[3],obviously inferior
same,Leucocyte,[4]; 120 mg/kg/day,72.55 10^9/L
same,Lymphocyte,[4]; 120 mg/kg/day,70.88 10^9/L
same,Neutrophil,[4]; 120 mg/kg/day,59.66 10^9/L
same,Ashcroft scores,[4]; 120 mg/kg/day,6.06
same,"inhibition (anti-inflammatory) effect on leucocytes, neutrophils and lymphocytes in blood",[4],obviously inferior
same,Ashcroft scores,[5]; 120 mg/kg/day,6.71
same,IL-1β,[5]; 120 mg/kg/day,572.7 pg/mL
same,IL-6,[5]; 120 mg/kg/day,543.7 pg/mL
same,NF-κB,[5]; 120 mg/kg/day,739.2 pg/mL
same,TNF-α,[5]; 120 mg/kg/day,542.4 pg/mL
"COC(=O)c1ccc2c(c1)NC(=O)/C2=C(\Nc1ccc(N(C)C(=O)CN2CCN(C)CC2)cc1)c1ccccc1 [Nintedanib, reference compound]",Ashcroft scores,[1],4.27
same,IL-1β,[1],220.7 pg/mL
same,IL-6,[1],349.1 pg/mL
same,NF-κB,[1],625.2 pg/mL
same,TNF-α,[1],243.6 pg/mL
same,Ashcroft scores,[2],4.08
same,IL-1β,[2],166.3 pg/mL
same,NF-κB,[2],529.7 pg/mL
same,TNF-α,[2],141.3 pg/mL
same,IL-6,[2],176.1 pg/mL
same,Leucocyte,[3],98.31 10^9/L
same,Lymphocyte,[3],87.43 10^9/L
same,Neutrophil,[3],78.94 10^9/L
same,Ashcroft scores,[3],4.55
same,"inhibition (anti-inflammatory) effect on leucocytes, neutrophils and lymphocytes in blood",[3],obviously inferior
same,Leucocyte,[4],46.09 10^9/L
same,Lymphocyte,[4],50.03 10^9/L
same,Neutrophil,[4],40.99 10^9/L
same,Ashcroft scores,[4],4.13
same,"inhibition (anti-inflammatory) effect on leucocytes, neutrophils and lymphocytes in blood",[4],obviously inferior
same,Ashcroft scores,[5],6.04
same,IL-1β,[5],561.2 pg/mL
same,IL-6,[5],523.7 pg/mL
same,NF-κB,[5],732.7 pg/mL
same,TNF-α,[5],539.8 pg/mL
